Experimental data as given in patent US5834484A (Board of Supervisors of Louisiana State University and …, priority 1998, dated 1998).
Like-named read-outs stand apart in the source and are kept apart here.

What was measured:
DAT = details: in words; cited from earlier work
[1] = target: T1, dopamine transporter (DAT), cocaine binding site (Rattus norvegicus, UniProt P23977); assay: Displacement of [^3 H]WIN 35,428 binding (rat striatal / caudate-putamen membranes); details: for binding affinity compared with cocaine and WIN 35,065-2: high affinity Ki values/components of cocaine and WIN 35,065-2; for Ki: mean ± SEM, three experiments in triplicate, unlabeled ligand, rat caudate-putamen
T1 construct: Rat striatal membranes are prepared from frozen tissue; from tissue; host or cells: rat caudate-putamen (striatal) membranes from frozen tissue

[2] = target: T1, dopamine transporter (DAT), cocaine binding site; details: two-site model, taken from Izenwasser et al. 1994, substantially identical conditions, cited from earlier work

T1 sequence (P23977 whole entry): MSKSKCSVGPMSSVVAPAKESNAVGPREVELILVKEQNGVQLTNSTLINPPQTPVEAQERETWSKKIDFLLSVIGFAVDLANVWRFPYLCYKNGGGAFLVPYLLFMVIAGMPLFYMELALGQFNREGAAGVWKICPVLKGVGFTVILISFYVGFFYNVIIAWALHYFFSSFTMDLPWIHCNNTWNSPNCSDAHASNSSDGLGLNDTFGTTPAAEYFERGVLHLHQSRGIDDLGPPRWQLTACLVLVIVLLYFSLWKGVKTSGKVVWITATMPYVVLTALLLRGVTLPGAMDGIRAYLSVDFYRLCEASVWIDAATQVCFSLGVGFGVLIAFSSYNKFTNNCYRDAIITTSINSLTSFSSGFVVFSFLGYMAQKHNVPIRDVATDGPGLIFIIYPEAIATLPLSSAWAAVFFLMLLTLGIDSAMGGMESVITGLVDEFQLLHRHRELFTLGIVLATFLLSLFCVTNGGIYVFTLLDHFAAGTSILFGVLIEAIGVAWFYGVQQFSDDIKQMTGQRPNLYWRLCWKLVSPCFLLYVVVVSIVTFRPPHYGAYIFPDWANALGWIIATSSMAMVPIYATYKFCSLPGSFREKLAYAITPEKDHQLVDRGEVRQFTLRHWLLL

For `COC(=O)[C@@H]1[C@@H](OC(=O)c2ccccc2)C[C@@H]2[C@@H](OC)C[C@H]1N2C` (relative stereo) [Compound 3, 6β-methoxypseudococaine], the “binding affinity to DAT (literature)” value (DAT) is listed as “relatively low”.

For `COC(=O)[C@H]1[C@H]2[C@H](OC)C[C@@H](C[C@@H]1OC(=O)c1ccccc1)N2C` (relative stereo) [Compound 4, 7β-methoxypseudococaine], the “binding affinity to DAT (literature)” value (DAT) is listed as “relatively low”.

In the case of `COC(=O)C[C@H]1[C@@H](Cc2ccccc2)C[C@@H]2CC[C@H]1N2C` (relative stereo) [Compound 16a], the “binding affinity compared with cocaine and WIN 35,065-2” value ([1]; in words) is reported as “not statistically different from the binding affinities of cocaine and WIN 35,065-2” and the Ki [1] is reported as 0.091 ± 0.01 µM.

For `COC(=O)C[C@@H]1[C@@H](Cc2ccccc2)C[C@@H]2CC[C@H]1N2C` (relative stereo) [Compound 17a], the “potency relative to the binding affinities of cocaine, WIN 35,065-2 and 16a (unsubstituted 2α-isomer)” value ([1]; in words) was “significantly less potent”, the Ki [1] was 0.108 ± 0.014 µM and the “potency (binding affinity) relative to Compound 3, in words” value ([1]; vs prior art cocaine analog 3) was “nearly three orders of magnitude more potent”.

`COC(=O)C[C@@H]1[C@@H](Cc2ccccc2)C[C@@H]2[C@H](C)C[C@H]1N2C` (relative stereo) [Compound 17b] showed a Ki [1] of 0.531 ± 0.012 µM.

With `CC[C@@H]1C[C@@H]2[C@H](CC(=O)OC)[C@@H](Cc3ccccc3)C[C@H]1N2C` (relative stereo) [Compound 17c] the “potency (binding affinity) relative to Compound 3, fold” value ([1]; vs prior art cocaine analog 3) was “about 100 times”.

In the case of `COC(=O)C[C@H]1[C@@H](Cc2ccccc2)C[C@@H]2[C@@H](C)C[C@H]1N2C` (relative stereo) [Compound 18b], the “potency relative to corresponding 6α-methyl analog 16b” value ([1]; 18b vs 16b) is reported as “about fourfold more potent”, the “binding affinity relative to unsubstituted analog 16a” value ([1]; in words) is reported as “only a slightly lower binding affinity than that of the unsubstituted analog 16a” and the “binding affinity compared with cocaine and WIN 35,065-2” value ([1]; in words) is reported as “within a factor of two of the high affinity binding components of cocaine and WIN 35,065-2”.

In the case of `COC(=O)C[C@@H]1[C@@H](Cc2ccccc2)C[C@@H]2[C@@H](C)C[C@H]1N2C` (relative stereo) [Compound 19b], the “potency relative to corresponding 6α-isomer 17b” value ([1]; 19b vs 17b) is reported as “about twice as potent”, the “binding affinity relative to unsubstituted derivative 17a” value ([1]; in words) is reported as “comparable to that of the unsubstituted derivative 17a” and the “potency (binding affinity) relative to Compound 3, in words” value ([1]; vs prior art cocaine analog 3) is reported as “nearly three orders of magnitude more potent”.

In the case of `CCC[C@H]1C[C@@H]2[C@H](CC(=O)OC)[C@@H](Cc3ccccc3)C[C@H]1N2C` (relative stereo) [Compound 19d], the “potency (binding affinity) relative to Compound 3, in words” value ([1]; vs prior art cocaine analog 3) is reported as “nearly three orders of magnitude more potent”.

For `COC(=O)[C@H]1[C@@H](c2ccccc2)C[C@@H]2CC[C@H]1N2C` [WIN 35,065-2], the Ki ([2]; read-out: Ki, high affinity, inhibition of [^3 H]WIN 35,428 binding, high affinity) is listed as 0.033 ± 0.017 µM and the Ki ([2]; read-out: Ki, low affinity, inhibition of [^3 H]WIN 35,428 binding, low affinity) is listed as 0.314 ± 0.222 µM.
